One assay has as its system Mus musculus. The assay is described as follows: Antidepressant activity in mouse assessed as antagonism of tetrabenazine-induced symptoms at 10 mg/kg, ip administered 30 mins before 35 mg/kg, ip tetrabenazine challenge measured after 30 mins by arousal test. It is filed as functional.
Assay [1] in a line: Inhibition of MAO in mouse brain using serotonin as substrate. It is filed as tissue-based.
For assay [2], the species on record is Rattus norvegicus. In words: Irreversible inhibition of MAO in rat brain using serotonin as substrate measured after dilution. It is filed as tissue-based.
The species named for assay [3] is Rattus norvegicus. In words: Irreversible inhibition of MAO in rat brain using serotonin as substrate preincubated for 15 mins measured after dialysis. It is filed as tissue-based.
The species named for assay [4] is Rattus norvegicus. In words: Inhibition of MAO in rat brain using serotonin as substrate preincubated for 15 mins. It is filed as tissue-based.

SMILES strings stand for the structures. Active and inactive are the calls of the source. No cut-off for these calls is given here.

Turning to `CCCCCCOc1ccc(C2=NCCN2)c2ccccc12`, in the assay on Mus musculus, the “inhibition (INH)” value was determined as 40%. Further, half-maximal inhibition in assay [1] (IC50) was put at 350 nM.
In the same order, the values of `CCCCCCOc1ccc2c(C3=NCCN3)cccc2c1` are less than 30% and 3400 nM.
With `CCCCCCCOc1ccc(C2=NCCN2)c2ccccc12`, the “inhibition (INH)” value with Mus musculus is reported as less than 30%. Moreover, the inhibition result in the assay listed under Rattus norvegicus [2] was “Active”. Further, the values for the inhibition in the assay filed under Rattus norvegicus [3] and in the assay filed under Rattus norvegicus [4] were 93% and 91%, respectively. This compound returned an IC50 in assay [1] of 400 nM.
As to `Oc1ccc(C2=NCCN2)c2ccccc12`, the “inhibition (INH)” value in the assay on Mus musculus is recorded as less than 30%. This compound also registered an IC50 in assay [1] of 12000 nM.
On to `CCCCOc1ccc(C2=NC(C)(C)CN2)c2ccccc12.Cl`, for which the “inhibition (INH)” value in the assay with Mus musculus is less than 30%. The same compound gave an IC50 in assay [1] of 6000 nM.
In the same order, the values of `CCCCOc1c(CCC)cc(C2=NCCN2)c2ccccc12` are less than 30% and 4900 nM.
In the same order, the values of `CCCCOc1ccc(C2=NC(C)CN2)c2ccccc12` (stereo unspecified) are less than 60% and 60 nM.
In the same order, the values of `CCCCCOc1ccc(C2=NCCN2)c2ccccc12` are 50% and 91 nM.
With `C#CCN(C)Cc1ccccc1` [PARGYLINE], the “inhibition (INH)” value in the assay with Mus musculus is given as 60%. In assay [1], this compound displayed an IC50 of 1200 nM.
The corresponding values for `CCOc1ccc(C2=NCCN2)c2ccccc12` are 50% and 54 nM.
For the compound `c1ccc2c(c1)cc(C1=NCCN1)c1ccccc12`, the “inhibition (INH)” value in the assay on Mus musculus was less than 30%. Besides, inhibition in assay [1] was half-maximal at 35000 nM (IC50).
In the same order, the values of `CCCOc1ccc(C2=NCCN2)c2ccccc12` are 60% and 91 nM.
In the same order, the values of `CCCCOc1ccc2c(C3=NCCN3)cccc2c1` are 60% and 32 nM.
As for `CCCCOc1ccc(C2=NCCN2)c2ccccc12`, the “inhibition (INH)” value in the assay with Mus musculus is reported as 60%. The inhibition entry in the assay filed under Rattus norvegicus [2] was “Active”. For the same compound, the inhibition in the assay listed under Rattus norvegicus [3] stood at 77%; in the assay filed under Rattus norvegicus [4], 96%. This compound came in with an IC50 in assay [1] of 58 nM.
Consider `CCCCOc1ccc(C2=NCCCN2)c2ccccc12`, for which the “inhibition (INH)” value in the assay on Mus musculus is on record as 30%. The compound further registered an IC50 in assay [1] of 50 nM.

One may read the IC50 as the concentration at which inhibition is half-maximal. High values mean lower potency, low ones higher potency. Broadly, the inhibition is the share of the control response that was lost under treatment.

The values are drawn from ChEMBL document CHEMBL3243983, “2-(Alkoxyaryl)-2-imidazoline monoamine oxidase inhibitors with antidepressant activity” (J Med Chem, 1978).
